What was measured:
Type in all cases: functional, cell-based
KB [1] = assay: In vitro antitumor activity against human epidermoid carcinoma KB cells by using MTT assay; No significant cytotoxicity
L1210 [2] = assay: In vitro antitumor activity against murine lymphoma L1210 cells by using MTT assay; No significant cytotoxicity; settings: Mus musculus
KB [3] = assay: In vitro antitumor activity against human epidermoid carcinoma KB cells by MTT assay.
L1210 [4] = assay: In vitro antitumor activity against murine lymphoma L1210 cells by MTT assay.; settings: Mus musculus

Compound	IC50 (KB [1])	IC50 (L1210 [2])	IC50 (KB [3])	IC50 (L1210 [4])
CCCCCCCCn1c2nc(=O)n(-c3ccccc3)c(=O)c-2cc2ncccc21	> 200 µM	> 200 µM		
CCCCCCCCCCCCn1c2nc(=O)[nH]c(=O)c-2cc2cc([N+](=O)[O-])ccc21			26.4 µM	6.8 µM
CCCCCCCCn1c2nc(=O)n(-c3ccccc3)c(=O)c-2cc2ccc([N+](=O)[O-])cc21			12.4 µM	2.6 µM
CCCCCCCCCCCCn1c2nc(=O)[nH]c(=O)c-2cc2ccc(C(F)(F)F)cc21	> 200 µM	> 200 µM		
CCCCCCCCCCCCn1c2nc(=O)[nH]c(=O)c-2cc2ccc([N+](=O)[O-])cc21			12.8 µM	2.5 µM
CCCCCCCCn1c2nc(=O)n(-c3ccccc3)c(=O)c-2cc2ccccc21	> 200 µM	> 200 µM		
CCCCCCCCn1c2nc(=O)n(-c3ccccc3)c(=O)c-2cc2cccc([N+](=O)[O-])c21			6 µM	1.5 µM
CCCCCCCCCCCCn1c2nc(=O)n(C)c(=O)c-2cc2ncccc21	> 200 µM	> 200 µM		
CCCCCCCCCCCCn1c2nc(=O)n(C)c(=O)c-2cc2ccc([N+](=O)[O-])cc21			8 µM	5.2 µM
CCCCCCCCn1c2nc(=O)n(CC(=O)OCC)c(=O)c-2cc2c([N+](=O)[O-])cccc21			7.6 µM	3 µM
CCCCCCCCn1c2nc(=O)n(CC(=O)OCC)c(=O)c-2cc2ccc([N+](=O)[O-])cc21			7.6 µM	8.4 µM
CCCCCCCCCCCCn1c2nc(=O)[nH]c(=O)c-2cc2cccc([N+](=O)[O-])c21			2.6 µM	1.8 µM
CCCCCCCCn1c2nc(=O)n(-c3ccccc3)c(=O)c-2cc2c([N+](=O)[O-])cccc21			8.4 µM	2.6 µM
CCCCCCCCCCCCn1c2nc(=O)[nH]c(=O)c-2cc2c([N+](=O)[O-])cccc21			3.2 µM	0.4 µM
CCCCCCCCn1c2nc(=O)n(CC(=O)OCC)c(=O)c-2cc2cc([N+](=O)[O-])ccc21			30 µM	12 µM
CCCCCCCCCCCCn1c2nc(=O)n(C)c(=O)c-2cc2cc([N+](=O)[O-])ccc21			15.8 µM	21.6 µM
CCCCCCCCn1c2nc(=O)n(CC(=O)OCC)c(=O)c-2cc2cccc([N+](=O)[O-])c21			3.6 µM	4 µM
CCCCCCCCCCCCn1c2nc(=O)[nH]c(=O)c-2cc2cc(C(F)(F)F)ccc21	> 200 µM	> 200 µM		
CCCCCCCCCCCCn1c2nc(=O)[nH]c(=O)c-2cc2ccccc21	> 200 µM	> 200 µM		
CCCCCCCCCCCCn1c2nc(=O)n(C)c(=O)c-2cc2cccc([N+](=O)[O-])c21			20 µM	7.8 µM
CCCCCCCCn1c2nc(=O)n(-c3ccccc3)c(=O)c-2cc2cccnc21	> 200 µM	> 200 µM		
CCCCCCCCCCCCn1c2nc(=O)n(C)c(=O)c-2cc2cccnc21	> 200 µM	> 200 µM		
CCCCCCCCCCCCn1c2nc(=O)n(C)c(=O)c-2cc2c([N+](=O)[O-])cccc21			6.8 µM	1.6 µM
CCCCCCCCn1c2nc(=O)n(-c3ccccc3)c(=O)c-2cc2cc([N+](=O)[O-])ccc21			7.6 µM	9.6 µM
CCCCCCCCn1c2nc(=O)n(CC(=O)OCC)c(=O)c-2cc2ccccc21	> 200 µM	> 200 µM		
CCCCCCCCCCCCn1c2nc(=O)n(C)c(=O)c-2cc2ccccc21	> 200 µM	> 200 µM		
CO[C@@]12[C@H](COC(N)=O)C3=C(C(=O)C(C)=C(N)C3=O)N1C[C@@H]1N[C@@H]12 [MITOMYCIN]			0.4 µM	0.6 µM

Source: ChEMBL document CHEMBL1128820, “Synthesis and evaluation of nitro 5-deazaflavins as novel bioreductive antitumor agents” (Bioorg Med Chem Lett, 1995)
